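Grown in 96-well plates, cells were treated for 48 hours with each compound at five concentrations. Insufficient inhibition: endpoint recorded as highest concentration tested. At the GI50, growth is halved.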 Active and inactive are the calls of the source. Cut-off read from the data, not from the text of the source: active = GI50 up to about 1.1 µM and inactive = higher.
Experiments:
Assay in all cases: growth of human tumour cells (NCI), 48 h
786-0 = system: 786-0
ACHN = system: ACHN
CAKI-1 = system: CAKI-1
HCC 2998 = system: HCC 2998
HOP-62 = system: HOP-62
HT-29 = system: HT-29
KM12 = system: KM12
MOLT-4 = system: MOLT-4
Malme-3M = system: Malme-3M
NCI-H23 = system: NCI-H23
NCI-H460 = system: NCI-H460
OVCAR-3 = system: OVCAR-3
OVCAR-5 = system: OVCAR-5
SF-295 = system: SF-295
TK-10 = system: TK-10
UACC-257 = system: UACC-257
DU-145 = system: DU-145
NCI/ADR-RES = system: NCI/ADR-RES
PC-3 = system: PC-3

Measured: GI50

C/C(CCn1[nH]c(=O)ccc1=O)=N\OCCCc1ccccc1
inactive: 786-0 > 100 µM | ACHN > 100 µM | CAKI-1 > 100 µM | HCC 2998 > 100 µM | HOP-62 > 100 µM | HT-29 > 100 µM | KM12 > 100 µM | MOLT-4 > 100 µM | Malme-3M > 100 µM | NCI-H23 > 100 µM | NCI-H460 > 100 µM | OVCAR-3 > 100 µM | OVCAR-5 > 100 µM | SF-295 > 100 µM | TK-10 > 100 µM | UACC-257 > 100 µM

Fc1ccc(F)c(C2SCc3nc4ccccc4n32)c1 (stereo not drawn)
inactive: 786-0 > 100 µM | ACHN 98.4 µM | CAKI-1 95.5 µM | HCC 2998 > 100 µM | HOP-62 > 100 µM | HT-29 86.3 µM | KM12 72.6 µM | MOLT-4 27.2 µM | Malme-3M 57.1 µM | NCI-H23 46.2 µM | NCI-H460 83 µM | OVCAR-3 54.6 µM | OVCAR-5 > 100 µM | SF-295 29.5 µM | TK-10 34.3 µM | UACC-257 41.4 µM

Cc1cc(O)c(C=O)c(C)c1CCC1(C)C=Cc2cc(O)ccc2O1 (stereo not drawn)
inactive: 786-0 29.3 µM | ACHN 15.7 µM | CAKI-1 19.2 µM | HCC 2998 29.4 µM | HOP-62 20 µM | HT-29 31 µM | KM12 31.3 µM | MOLT-4 18.4 µM | Malme-3M 24.8 µM | NCI-H23 16.7 µM | NCI-H460 22.6 µM | OVCAR-3 18.5 µM | OVCAR-5 30.5 µM | SF-295 23.4 µM | TK-10 46.5 µM | UACC-257 18.7 µM

CS/C(=N\c1ccc([N+](=O)[O-])cc1C#N)NC(=O)c1ccccc1
inactive: 786-0 > 100 µM | ACHN > 100 µM | CAKI-1 94.2 µM | HCC 2998 > 100 µM | HOP-62 > 100 µM | HT-29 > 100 µM | KM12 > 100 µM | MOLT-4 54.2 µM | Malme-3M > 100 µM | NCI-H23 > 100 µM | NCI-H460 > 100 µM | OVCAR-3 > 100 µM | OVCAR-5 > 100 µM | SF-295 > 100 µM | TK-10 > 100 µM | UACC-257 > 100 µM

CC(=O)C1=C(O)C(N)C2Cc3c(c(O)c4c(O)c(C)ccc4c3C)C(=O)C2(O)C1=O (stereo not drawn)
inactive: 786-0 2.58 µM | ACHN 1.35 µM | CAKI-1 1.52 µM | HCC 2998 3.28 µM | HOP-62 1.58 µM | HT-29 2.23 µM | KM12 1.9 µM | MOLT-4 1.71 µM | Malme-3M 1.29 µM | NCI-H23 1.75 µM | NCI-H460 1.3 µM | OVCAR-3 1.3 µM | OVCAR-5 4.46 µM | SF-295 1.26 µM | TK-10 1.93 µM | UACC-257 2.48 µM

O=C(/C=N/O)Nc1ccc(Cl)c(I)c1
inactive: 786-0 29.3 µM | ACHN 16.7 µM | CAKI-1 14.3 µM | HCC 2998 14.1 µM | HOP-62 23.1 µM | HT-29 33.3 µM | KM12 20.6 µM | MOLT-4 19.6 µM | Malme-3M 25.5 µM | NCI-H23 17.8 µM | NCI-H460 21.6 µM | OVCAR-3 13.6 µM | OVCAR-5 21.6 µM | SF-295 29.5 µM | TK-10 33.6 µM | UACC-257 28.6 µM

O=S(=O)(O)c1ccc([Se][Se]c2ccc(S(=O)(=O)O)cc2)cc1
inactive: 786-0 > 100 µM | ACHN > 100 µM | CAKI-1 > 100 µM | HCC 2998 > 100 µM | HOP-62 > 100 µM | HT-29 > 100 µM | KM12 > 100 µM | MOLT-4 > 100 µM | Malme-3M > 100 µM | NCI-H23 > 100 µM | NCI-H460 > 100 µM | OVCAR-3 > 100 µM | OVCAR-5 > 100 µM | SF-295 > 100 µM | TK-10 > 100 µM | UACC-257 > 100 µM

CCOC(=O)/C=C1\Nc2ccccc2-n2nnnc21
inactive: 786-0 > 100 µM | ACHN > 100 µM | CAKI-1 > 100 µM | HCC 2998 > 100 µM | HOP-62 > 100 µM | HT-29 95.5 µM | KM12 > 100 µM | MOLT-4 > 100 µM | Malme-3M > 100 µM | NCI-H23 > 100 µM | NCI-H460 > 100 µM | OVCAR-3 > 100 µM | OVCAR-5 > 100 µM | SF-295 > 100 µM | TK-10 > 100 µM | UACC-257 > 100 µM

COC(=O)C1=CC(O)CCC1c1ccc(OC)cc1 (stereo not drawn)
inactive: 786-0 > 100 µM | ACHN > 100 µM | CAKI-1 > 100 µM | HCC 2998 > 100 µM | HOP-62 > 100 µM | HT-29 > 100 µM | KM12 > 100 µM | MOLT-4 > 100 µM | Malme-3M > 100 µM | NCI-H23 > 100 µM | NCI-H460 > 100 µM | OVCAR-3 > 100 µM | OVCAR-5 > 100 µM | SF-295 > 100 µM | TK-10 > 100 µM | UACC-257 > 100 µM

CCO/N=C(/N)c1ncn(Cc2ccccc2)c1NCC(OCC)OCC
inactive: 786-0 > 100 µM | ACHN > 100 µM | CAKI-1 > 100 µM | HCC 2998 > 100 µM | HOP-62 > 100 µM | HT-29 > 100 µM | KM12 > 100 µM | MOLT-4 > 100 µM | Malme-3M > 100 µM | NCI-H460 > 100 µM | OVCAR-3 > 100 µM | OVCAR-5 > 100 µM | SF-295 > 100 µM | TK-10 > 100 µM | UACC-257 > 100 µM

Nc1cn(C2OC(CC(c3ccccc3)(c3ccccc3)c3ccccc3)C(O)C2O)c(=O)[nH]c1=O (stereo not drawn)
inactive: 786-0 21.4 µM | ACHN > 100 µM | CAKI-1 19.5 µM | HCC 2998 27 µM | HOP-62 23.4 µM | HT-29 23.2 µM | KM12 31.3 µM | MOLT-4 20.4 µM | Malme-3M 23.5 µM | NCI-H23 23.5 µM | NCI-H460 18.3 µM | OVCAR-3 14.5 µM | OVCAR-5 21.2 µM | SF-295 30.1 µM | TK-10 26.4 µM | UACC-257 22.9 µM

CC(C)(C)C1CCC2c3c([nH]c4ccccc34)C3C(=O)N(c4ccccc4[N+](=O)[O-])C(=O)C3C2C1 (stereo not drawn)
inactive: 786-0 12.7 µM | ACHN 9.1 µM | CAKI-1 5.66 µM | DU-145 8.39 µM | HCC 2998 4.14 µM | HOP-62 4.53 µM | HT-29 4.32 µM | MOLT-4 > 10 µM | Malme-3M 16.4 µM | NCI-H23 8.34 µM | NCI-H460 4.25 µM | NCI/ADR-RES 12.7 µM | OVCAR-3 13 µM | OVCAR-5 16.9 µM | PC-3 7.6 µM | SF-295 12.3 µM | TK-10 17.7 µM | UACC-257 22.2 µM
